Measured values taken from PMC4421842 (Nature Communications, 2015).
Converted amounts (≈) assume the structure as drawn. “And” between values parts separate entries of the source, which are not always exact repeats. Equal values may be shown once. “Also recorded” adds a separate entry of the source. Read-outs that look alike come from different tables or passages of the source.

How the values were obtained:
[1] = system: WT S. aureus (ATCC 29213, WT); test: microbe, parasite or virus in culture; type: cell-based; conditions: WT GyrA and WT ParC, three independent replicates
MRSA clinical isolates = test: microbe, parasite or virus in culture; type: cell-based, S. aureus; conditions: for MIC: Staphylococcus aureus, MRSA
Experimental: (§1) MRSA and P. aeruginosa isolates were from Cubist Pharmaceuticals (Lexington, MA). VRE isolates were from a previously published collection. E. coli strains were obtained either from ATCC or Professor Cari Vanderpool (UIUC). A. baumannii isolates were obtained from Dr John Quale[51].
Susceptibility testing was performed in triplicate, using the microdilution broth method as outlined by the Clinical and Laboratory Standards Institute[52]. Mueller Hinton (MH) broth was used.

E. faecalis = test: microbe, parasite or virus in culture; type: cell-based; conditions: E. faecalis
E. faecium = test: microbe, parasite or virus in culture; type: cell-based; conditions: Enterococcus faecium, E. faecium
Ent. Spp. = test: MIC, microdilution broth, Ent. Spp. VRE clinical isolate; type: cell-based; conditions: Enterococcus, C28036, gyrA Ser83Ile, parC Ser80Ile
Description: as §1
(§2) Mueller Hinton (MH) broth was used.

VRE clinical isolates = test: MIC, VRE clinical isolates panel (summary by GyrA mutation); type: cell-based, Enterococcus; conditions: for MIC: Enterococcus, VRE
Description: as §1, §2

E. coli = test: microbe, parasite or virus in culture; type: cell-based; conditions: Escherichia coli, ATCC25922, E. coli ATCC 25922; gyrA none, parC none
Description: as §1, §2

P. aeruginosa = test: MIC, microdilution broth, P. aeruginosa; type: cell-based
Description: as §1, §2

A. baumannii = test: MIC, microdilution broth, A. baumannii; type: cell-based
Description: as §1, §2

WT E. coli DNA gyrase = molecular target: T1, WT E. coli DNA gyrase (Escherichia coli, UniProt P0AES4+P0AES6); type: biochemical; conditions: DNA cleavage assay
T1 construct: His tag (pTRCHisA vector; purified on Ni-NTA); made in house; host or cells: E. coli One Shot BL21 Star (DE3)

S83R E. coli DNA gyrase = molecular target: T2, S83R E. coli DNA gyrase (Escherichia coli, UniProt P0AES4+P0AES6, S83R); type: biochemical; conditions: DNA cleavage assay
T2 construct: His tag (pTRCHisA vector; purified on Ni-NTA); made in house; host or cells: E. coli One Shot BL21 Star (DE3)

[2] = system: resistant strains of ATCC 29213; test: microbe, parasite or virus in culture; type: cell-based, S. aureus; conditions: Staphylococcus aureus
S. aureus (ATCC 29213) = test: Resistant mutant generation (resistance frequency); type: cell-based; conditions: development of DNM resistance in high-level CIP-resistant strains
[3] = Pharmacokinetic assessment; type: in vivo, C57BL/6 mice; conditions: for Cmax: female, C57BL/6, mouse
Experimental: (§3) The animal studies (PK, in-vivo toxicity and in-vivo efficacy) were carried out in strict accordance with the recommendations in the Guide for the Care and Use of Laboratory Animals of the National Institutes of Health. […] In these studies, 10- to 12-week-old female C57BL/6 mice purchased from Charles River were used. DNM, DNM-2 and DNM-3 were formulated as slurries at 8.3 mg ml^−1 in 25% Cremophor RH40/water (v/v). Before beginning the pharmacokinetic assessment, mice were first tested for their ability to tolerate the DNM, DNM-2 and DNM-3 at 50 mg kg^−1 (p.o.). […] At specified time points, mice were killed and blood was collected, centrifuged and the serum was frozen at −80 °C until analysis. The proteins in a 50-μl aliquot of serum were precipitated by the addition of 50 μl of acetonitrile and the sample was centrifuged to remove the proteins. Serum concentrations of DNM, DNM-2 and DNM-3 were determined by HPLC. PK parameters were determined using GraphPad Prism Version 5.00 for Windows.

[4] = Tolerability in mice (maximal tolerated dose); type: in vivo
Experimental: as §3

physchem = conditions: pH 7.4
Experimental: Three independent replicates of each compound were performed.

Cc1cc(=O)n(C)c2c3c4c(cc12)c(C)cc(=O)n4CO3 [DNM, deoxynybomycin]
MIC against S. aureus 29213 ([1]; ATCC 29213): modest activity and 2 μg ml^−1
MIC ([1]; Staphylococcus aureus, ATCC29213, ATCC 29213, read-out: MIC against S. aureus 29213): > 1 µg/mL
MIC (MRSA clinical isolates; strain SAU.1118, read-out: MIC): 1 µg/mL (≈ 3.54 µM)
MIC (MRSA clinical isolates; strain SAU.2996, read-out: MIC): 0.25 µg/mL (≈ 0.886 µM)
MIC (MRSA clinical isolates; strain SAU.3017, read-out: MIC): 1 µg/mL (≈ 3.54 µM)
MIC (MRSA clinical isolates; strain SAU.3021, read-out: MIC): 0.031 µg/mL (≈ 0.11 µM)
MIC (MRSA clinical isolates; strain SAU.3025, read-out: MIC): 0.031 µg/mL (≈ 0.11 µM)
MIC (MRSA clinical isolates; strain SAU.419, read-out: MIC): 0.125 µg/mL (≈ 0.443 µM)
MIC (MRSA clinical isolates; strain SAU.42, read-out: MIC): 1 µg/mL (≈ 3.54 µM)
MIC (MRSA clinical isolates; strain SAU.446, read-out: MIC): 0.25 µg/mL (≈ 0.886 µM)
MIC (MRSA clinical isolates; strain SAU.447): 0.063 µg/mL (≈ 0.223 µM)
MIC (MRSA clinical isolates; strain SAU.492, gyrA Ser84Leu, parC Ser80Tyr): 0.063 µg/mL (≈ 0.223 µM)
MIC (MRSA clinical isolates; strain SAU.493, gyrA Ser84Leu, parC Ser80Phe): 0.063 µg/mL (≈ 0.223 µM)
MIC (MRSA clinical isolates; strain SAU.494, gyrA Ser84Leu, parC Ser80Phe): 0.063 µg/mL (≈ 0.223 µM)
MIC (MRSA clinical isolates; strain SAU.495, gyrA Ser84Leu, parC Ser80Phe): 0.063 µg/mL (≈ 0.223 µM)
MIC (MRSA clinical isolates; strain SAU.496, gyrA Ser84Leu, parC Ser80Phe): 0.063 µg/mL (≈ 0.223 µM)
MIC (MRSA clinical isolates; strain SAU.555, read-out: MIC): 0.125 µg/mL (≈ 0.443 µM)
MIC (MRSA clinical isolates; strain SAU.708, gyrA Ser84Leu, parC Ser80Phe Glu84Lys): 0.063 µg/mL (≈ 0.223 µM)
MIC (MRSA clinical isolates; strain SAU.709, gyrA Ser84Leu, parC Ser80Tyr Glu84Gly): 0.063 µg/mL (≈ 0.223 µM)
MIC (MRSA clinical isolates; strain SAU.846, read-out: MIC): 0.031 µg/mL (≈ 0.11 µM)
Sensitivity of MRSA clinical isolates (MRSA clinical isolates; panel of MRSA clinical isolates (n=21)): sensitive
MIC (E. faecalis; ATCC 29212, gyrA WT, parC WT): > 1 µg/mL
MIC (E. faecalis; Enterococcus faecalis, ATCC19433, ATCC 19433, gyrA WT, parC WT): > 1 µg/mL
MIC (E. faecalis; Enterococcus faecalis, ATCC29212, ATCC 29212, gyrA WT, parC WT): > 1 µg/mL
MIC (E. faecalis; Enterococcus faecalis, S206, gyrA Ser83 Arg, parC Ser80Ile): 1 µg/mL (≈ 3.54 µM)
MIC (E. faecium; C21190, gyrA Ser83 Arg, parC Ser80Ile): > 1 µg/mL
MIC (E. faecium; C27282, gyrA Ser83 Arg, parC Ser80Arg): > 1 µg/mL
MIC (E. faecium; S34, gyrA Ser83Ile, parC Ser80 Arg): 1 µg/mL (≈ 3.54 µM)
MIC (E. faecium; S226, gyrA Ser83Ile, parC Ser80Ile): 0.25 µg/mL (≈ 0.886 µM)
MIC (E. faecium; S235, gyrA Ser83Ile, parC Ser80Ile): 0.125 µg/mL (≈ 0.443 µM)
MIC (E. faecium; S344, gyrA Ser83Ile, parC Ser80Ile): 0.25 µg/mL (≈ 0.886 µM)
MIC (E. faecium; S557, gyrA Ser83Ile, parC Ser80Ile): 0.25 µg/mL (≈ 0.886 µM)
MIC (E. faecium; U63, gyrA Ser83 Arg, parC Ser80Ile): 1 µg/mL (≈ 3.54 µM)
MIC (E. faecium; U275, gyrA Ser83Cys Glu87Gly, parC Ser80Ile): 1 µg/mL (≈ 3.54 µM)
MIC (E. faecium; U464, gyrA Ser83 Arg, parC Ser80Ile): 1 µg/mL (≈ 3.54 µM)
MIC (E. faecium; U503, gyrA Ser83 Arg, parC Ser80Ile): > 1 µg/mL
MIC (E. faecium; U563, gyrA Ser83 Arg, parC Ser80Ile): > 1 µg/mL
MIC (Ent. Spp.): 0.25 µg/mL (≈ 0.886 µM)
MIC (VRE clinical isolates; VRE harbouring the S83I mutation in GyrA): 0.125 to 1 µg/mL (≈ 0.443 to 3.54 µM)
MIC (VRE clinical isolates; VRE with the S83R mutation in GyrA): ≥ 1 µg/mL
Sensitivity of VRE clinical isolates (VRE clinical isolates; panel of VRE clinical isolates (n=22)): sensitive
MIC (E. coli): > 4 µg/mL
activity against wild-type (WT) or FQR P. aeruginosa (P. aeruginosa): no detectable activity
MIC (P. aeruginosa; PA1586 (CIP resistant clinical isolate)): > 4 µg/mL
MIC (P. aeruginosa; Pseudomonas aeruginosa, P. aeruginosa PAO1, read-out: MIC): > 4 µg/mL
MIC (P. aeruginosa; Pseudomonas aeruginosa, read-out: MIC): > 4 µg/mL
activity against wild-type (WT) or FQR Acinetobacter baumannii (A. baumannii): no detectable activity
MIC (A. baumannii; A. baumannii KB304, gyrA S83L): > 4 µg/mL
MIC (A. baumannii; Acinetobacter baumannii): > 4 µg/mL
MIC (A. baumannii; Acinetobacter baumannii, ATCC19606, A. baumannii ATCC 19606, read-out: MIC): > 4 µg/mL
inhibition of WT DNA gyrase (increase in L or OC DNA) (WT E. coli DNA gyrase): poor inhibitors of WT DNA gyrase
inhibition of S83R DNA gyrase (S83R E. coli DNA gyrase): buildup of OC DNA similar to that seen with S83L DNA gyrase only at a slightly higher concentration or longer time points
MIC ([2]; ATCC29213, high-level CIP-resistant strains, second step, S84L mutation in GyrA): 0.03 to 0.06 µg/mL (≈ 0.106 to 0.213 µM)
MIC ([2]; ATCC29213, low-level CIP-resistant strains, first step, WT gyrA, mutation in ParC (for example E84K or S80F)): > 1 µg/mL
MIC ([2]; ATCC29213, resistance cycle strain, WT gyrA, WT parC (Fig. 4a)): > 1 µg/mL
resistance frequencies (S. aureus (ATCC 29213)): 1 × 10^−10 to 7 × 10^−10
Cmax ([3]; C57/BL6 mice, 50 mg kg-1 oral gavage, serum, read-out: Cmax): < 60 ng/mL
Cmax ([3]; mice, 50 mg kg^−1 oral dose, serum, read-out: Cmax (peak serum concentration)): < 200 nM
oral bioavailability / serum exposure ([3]; mice, 50 mg kg^−1 oral dose): very low serum exposure; also recorded: not absorbed to any appreciable degree
Cmax (peak serum concentration) ([3]; mice, 50 mg kg^−1 oral dose, serum): < 60 ng/mL
tolerability ([4]; increasing doses, highest dose evaluated 50 mg kg^−1 by oral gavage): well tolerated up to the highest dose evaluated
maximal tolerated dose ([4]; oral gavage): > 50 mg/kg
solubility at 1 h (physchem): 9 µM (≈ 2.54 µg/mL)
